From ChEMBL document CHEMBL4513148, “CO-ADD screening of Stellenbosch University (South Africa) compounds”
Converted amounts (≈) assume the structure as drawn.

Tests used:
HEK293 = test: cells; format: functional; conditions: Homo sapiens, ATCC CRL1573, HEK293; ASSAY_TEST Inhibition of Cell Viability; detection method Resazurin; Fluorescence (ex560/em590); MEDIA DMEM with 10% FBS; plate type 384well; TC; CORNING #3712; time 18 hr
Candida albicans = test: microbe, parasite or virus in culture; conditions: ATCC 90028, ASSAY_TEST Inhibition of Fungal Growth, detection method Absorption (OD530), plate type 384well, NBS, CORNING #3640
Description: Antifungal activity against Candida albicans ATCC 90028 (CO-ADD:FG_001); MIC in YNB media using NBS plates, by OD630

Escherichia coli = test: microbe, parasite or virus in culture; conditions: ATCC 25922, 18 h, ASSAY_TEST Inhibition of Bacterial Growth, detection method Absorption (OD600), MEDIA CAMHB, plate type 384well, NBS, CORNING #3640
Description: Antibacterial activity against Escherichia coli ATCC 25922 (CO-ADD:GN_001); MIC in CAMBH media using NBS plates, by OD(600)

Pseudomonas aeruginosa = test: microbe, parasite or virus in culture; conditions: ATCC 27853, 18 h, ASSAY_TEST Inhibition of Bacterial Growth, detection method Absorption (OD600), MEDIA CAMHB, plate type 384well, NBS, CORNING #3640
Description: Antibacterial activity against Pseudomonas aeruginosa ATCC 27853 (CO-ADD:GN_042); MIC in CAMBH media using NBS plates, by OD(600)

Acinetobacter baumannii = test: microbe, parasite or virus in culture; conditions: ATCC 19606, 18 h, ASSAY_TEST Inhibition of Bacterial Growth, detection method Absorption (OD600), MEDIA CAMHB, plate type 384well, NBS, CORNING #3640
Description: Antibacterial activity against Acinetobacter baumannii ATCC 19606 (CO-ADD:GN_034); MIC in CAMBH media using NBS plates, by OD600

Staphylococcus aureus = test: microbe, parasite or virus in culture; conditions: ATCC 43300, 18 h, ASSAY_TEST Inhibition of Bacterial Growth, detection method Absorption (OD600), MEDIA CAMHB, plate type 384well, NBS, CORNING #3640
Description: Antibacterial activity against Staphylococcus aureus MRSA ATCC 43300 (CO-ADD:GP_020); MIC in CAMBH media, using NBS plates, by OD(600)

Klebsiella pneumoniae = test: microbe, parasite or virus in culture; conditions: ATCC 700603, 18 h, ASSAY_TEST Inhibition of Bacterial Growth, detection method Absorption (OD600), MEDIA CAMHB, plate type 384well, NBS, CORNING #3640
Description: Antibacterial activity against Klebsiella pneumoniae MDR ATCC 70063 (CO-ADD:GN_003); MIC in CAMBH media using NBS plates, by OD(600)

Description for Cryptococcus neoformans: Antifungal activity against Cryptococcus neoformans H99 ATCC 208821 (CO-ADD:FG_002); MIC in YNB media using NBS plates, by Resazurin OD(600-570)

MIC (Cryptococcus neoformans) [µg/mL] | MIC (Candida albicans) [µg/mL] | MIC (Escherichia coli) [µg/mL] | MIC (Pseudomonas aeruginosa) [µg/mL] | MIC (Acinetobacter baumannii) [µg/mL] | MIC (Staphylococcus aureus) [µg/mL] | MIC (Klebsiella pneumoniae) [µg/mL] | Structure (SMILES) | CC50 (HEK293) [µg/mL]
> 32 | > 32 | > 32 | > 32 | > 32 | > 32 | > 32 | CCCCCCCN(C)C(=O)CCNC(=O)[C@H](O)C(C)(C)CO | > 32
> 32 | > 32 | > 32 | > 32 | > 32 | > 32 | > 32 | CCCCCCCNC(=O)C(C)CNC(=O)[C@H](O)C(C)(C)CO (stereo not given in full) | > 32
> 32 | > 32 | > 32 | > 32 | > 32 | 0.5 (≈ 1.58 µM) | > 32 | CCCCCCCNC(=O)CCNC(=O)[C@H](O)C(C)(C)CO | > 32
> 32 | > 32 | > 32 | > 32 | > 32 | > 32 | > 32 | CCCCCCCNC(=O)CCNC(=O)[C@H](O)C(C)(C)COP(=O)(O)O | > 32
> 32 | > 32 | > 32 | > 32 | > 32 | > 32 | > 32 | CC(CNC(=O)[C@H](O)C(C)(C)CO)C(=O)NCCc1ccccc1 (stereo not given in full) | > 32
> 32 | > 32 | > 32 | > 32 | > 32 | > 32 | > 32 | CCCCCCCNC(=O)CCNC(=O)C(O)C(C)(C)CN (stereo not given) | > 32
> 32 | > 32 | > 32 | > 32 | > 32 | > 32 | > 32 | CCCCCCCNC(=O)CC(C)NC(=O)[C@H](O)C(C)(C)CO (stereo not given in full) | > 32
> 32 | > 32 | > 32 | > 32 | > 32 | > 32 | > 32 | CN(CCc1ccccc1)C(=O)CCNC(=O)[C@H](O)C(C)(C)CO | > 32
> 32 | > 32 | > 32 | > 32 | > 32 | 32 (≈ 99.3 µM) | > 32 | CC(C)(CO)[C@@H](O)C(=O)NCCC(=O)NCCc1ccccc1 | > 32
> 32 | > 32 | > 32 | > 32 | > 32 | > 32 | > 32 | CCCCCCCNC(=O)/C=C/NC(=O)[C@H](O)C(C)(C)CO | > 32
